Measurements taken from the supplement of paper PMC8967900.

Experiments:
Test in all cases: selective drug sensitivity score (sDSS, relative to normal bone marrow) (sDSS (score)); higher = more potent and effective on the cell line relative to normal bone marrow cells
Conditions in all cases: 72 h
ALL-SIL = test system: ALL-SIL
CCRF-CEM = test system: CCRF-CEM
SEM cells = test system: SEM cells
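Note: ALL cell lines in 384-well plates, five doses spanning 10,000-fold, each plate scaled between vehicle and 100 µmol/L benzalkonium chloride controls, sDSS an adapted area-under-curve metric.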

| Structure (SMILES) | selective drug sensitivity score (ALL-SIL) | selective drug sensitivity score (CCRF-CEM) | selective drug sensitivity score (SEM cells) |
| --- | --- | --- | --- |
| COc1cc(C)[nH]c(=O)c1CNC(=O)c1c(C)n([C@H](C)C2CCOCC2)c2ccccc12 [CPI-360] (top concentration 10000 nM) | 0 | 0 | 0 |
| CNC(=O)c1ccc(-c2cnc3ncc(Cc4ccc5ncccc5c4)n3n2)cc1F [Capmatinib] (top concentration 1000 nM) | -0.06 | 0.04 | -0.06 |
| COc1cc2c(Oc3ccc4[nH]c(C)cc4c3F)ncnc2cc1OCCCN1CCCC1 [Cediranib] (top concentration 1000 nM) | 0 | 0.1 | 0.2 |
| CCN(CC)CCCC(C)Nc1ccnc2cc(Cl)ccc12 (centres undefined) [Chloroquine] (top concentration 100000 nM) | -0.74 | -2.94 | -0.74 |
| C[C@@H](Oc1cc(-c2cnn(C3CCNCC3)c2)cnc1N)c1c(Cl)ccc(F)c1Cl [Crizotinib] (top concentration 1000 nM) | 5.46 | -0.54 | -0.54 |
| COc1cc2ncnc(Nc3ccc(F)c(Cl)c3)c2cc1NC(=O)/C=C/CN1CCCCC1 [Dacomitinib] (top concentration 1000 nM) | -1.04 | 0.26 | 0.86 |
| CCN(CC)CCN(Cc1ccc(-c2ccc(C(F)(F)F)cc2)cc1)C(=O)Cn1c(SCc2ccc(F)cc2)nc(=O)c2c1CCC2 [Darapladib] (top concentration 1000 nM) | -1.42 | -1.42 | -1.42 |
| C[C@@H]1C[C@H]2[C@@H]3CCC4=CC(=O)C=C[C@]4(C)[C@@]3(F)[C@@H](O)C[C@]2(C)[C@@]1(O)C(=O)CO [Dexamethasone] (top concentration 10000 nM) | 18.6 | 13.9 | 10.9 |
| Cc1cc(C)c(CNC(=O)c2cc(-c3ccc(CN4CCOCC4)cc3)cc3c2cnn3C2CCCC2)c(=O)[nH]1 [EPZ-5687] (top concentration 10000 nM) | -0.36 | 0.14 | -0.36 |
| C=C1C[C@@H]2CC[C@@]34C[C@H]5O[C@H]6[C@@H](O3)[C@H]3O[C@H](CC[C@@H]3O[C@H]6[C@H]5O4)CC(=O)C[C@@H]3[C@@H](OC)[C@@H](C[C@H](O)CN)O[C@H]3C[C@H]3O[C@@H](CC[C@@H]1O2)C[C@@H](C)C3=C [Eribulin] (top concentration 1000 nM) | 23.2 | 19.9 | 22.1 |
| O=c1[nH]cc(F)c(=O)[nH]1 [Fluorouracil] (top concentration 10000 nM) | -0.64 | 3.06 | 2.76 |
| CC(C)C(=O)Nc1ccc([N+](=O)[O-])c(C(F)(F)F)c1 [Flutamide] (top concentration 10000 nM) | -0.26 | -0.16 | 2.44 |
| C[C@]12CC[C@@H]3c4ccc(O)cc4C[C@@H](CCCCCCCCC[S+]([O-])CCCC(F)(F)C(F)(F)F)[C@H]3[C@@H]1CC[C@@H]2O (some centres undefined) [Fulvestrant] (top concentration 1000 nM) | 5.3 | 0 | 0 |
| CCCOc1ccn2c(C(C)=O)cc(-c3ccccc3S(C)(=O)=O)c2c1 [GSK2801] (top concentration 10000 nM) | -0.36 | -0.26 | -0.36 |
| Cc1cccc(-c2nn3c(c2-c2ccnc4ccc(C(N)=O)cc24)CCC3)n1 [Galunisertib] (top concentration 1000 nM) | 0 | 0 | 0.1 |
| O=C(O)CNC(=O)c1c(O)c2ccccc2n(Cc2ccccc2)c1=O [IOX-2] (top concentration 50000 nM) | -0.82 | -0.82 | -0.82 |
| C#Cc1cccc(Nc2ncnc3cc4c(cc23)OCCOCCOCCO4)c1 [Icotinib] (top concentration 10000 nM) | 0.8 | 0.3 | 3 |
| CC(C)Cn1cnc2c(N)nc3ccccc3c21 [Imiquimod] (top concentration 2500 nM) | 0 | 0 | 0 |
| N#Cc1ccnc(N2C(=O)CC[C@H]2C(=O)N(c2cncc(F)c2)[C@H](C(=O)NC2CC(F)(F)C2)c2ccccc2Cl)c1 [Ivosidenib] (top concentration 10000 nM) | 2 | 1 | 0 |
| C/C(=C\c1csc(C)n1)[C@@H]1C[C@@H]2O[C@]2(C)CCC[C@H](C)[C@H](O)[C@@H](C)C(=O)C(C)(C)[C@@H](O)CC(=O)N1 [Ixabepilone] (top concentration 1000 nM) | 2.98 | 3.08 | 3.58 |
| Nc1cc(COc2c(Cl)cc(C[C@H](N)C(=O)O)cc2Cl)c2oc(-c3ccccc3)nc2c1 [JPH203] (top concentration 5000 nM) | 0 | 0 | 0 |
| CS(=O)(=O)CCNCc1ccc(-c2ccc3ncnc(Nc4ccc(OCc5cccc(F)c5)c(Cl)c4)c3c2)o1 [Lapatinib] (top concentration 1000 nM) | 0 | 0 | 0 |

| Structure (SMILES) | selective drug sensitivity score (ALL-SIL) | selective drug sensitivity score (CCRF-CEM) | selective drug sensitivity score (SEM cells) |
| --- | --- | --- | --- |
| Oc1ccc2c(c1)CC[C@H](c1ccccc1)[C@@H]2c1ccc(OCCN2CCCC2)cc1 [Lasofoxifene] (top concentration 1000 nM) | -1.28 | -1.08 | -1.28 |
| Cc1ccc(F)c(NC(=O)Nc2ccc(-c3cccc4[nH]nc(N)c34)cc2)c1 [Linifanib] (top concentration 1000 nM) | -1.12 | -1.02 | 1.28 |
| Cc1c(F)cc(C(=O)NC2CC2)cc1-c1ccc(C(=O)NCC(C)(C)C)cn1 [Losmapimod] (top concentration 10000 nM) | -0.18 | -0.18 | -0.18 |
| CNC(=O)c1cccc2cc(Oc3ccnc4cc(OCC5(N)CC5)c(OC)cc34)ccc12 [Lucitanib] (top concentration 10000 nM) | 4.88 | 3.08 | 4.98 |
| O=C1c2c(O)ccc(O)c2C(=O)c2c(NCCNCCO)ccc(NCCNCCO)c21 [Mitoxantrone] (top concentration 1000 nM) | 7.44 | 10.8 | 8.04 |
| CC1(C)CNc2cc(NC(=O)c3cccnc3NCc3ccncc3)ccc21 [Motesanib] (top concentration 10000 nM) | -0.22 | -0.22 | -0.22 |
| CCCN(CCC)C(=O)C1=Cc2ccc(-c3ccc(C(=O)N4CCCC4)cc3)cc2N=C(N)C1 [Motolimod] (top concentration 10000 nM) | -3.48 | -3.38 | -3.38 |
| Cc1cc(-c2ncc(CC(=O)Nc3ccc(-c4cnccn4)cn3)cc2C)ccn1 [NVP-LGK974] (top concentration 10000 nM) | 0 | -0.5 | 2.2 |
| CC1(C)NC(=O)N(c2ccc([N+](=O)[O-])c(C(F)(F)F)c2)C1=O [Nilutamide] (top concentration 10000 nM) | 0.82 | -0.48 | -0.48 |
| CNC(=O)c1ccc2cc([C@@]3(O)CCn4cncc43)ccc2c1 [Orteronel] (top concentration 10000 nM) | 0 | 0 | 0 |
| C=CCc1cccc(/C=N/NC(=O)CN2CCN(Cc3ccccc3)CC2)c1O [PAC-1] (top concentration 10000 nM) | 3.18 | 5.18 | 2.98 |
| O=C(Nc1cccnc1)N1CCC(Cc2cccc(Oc3ccc(C(F)(F)F)cn3)c2)CC1 [PF-3845] (top concentration 10000 nM) | -0.84 | -0.44 | 0.96 |
| COc1cc(Br)c(Nc2nc(-c3c(C)nc4ncccn34)cs2)c(Br)c1 [PTC-209] (top concentration 10000 nM) | 0.42 | 0.52 | 2.42 |
| C=CC(=O)N1CCC(Oc2cc3c(Nc4ccc(Cl)c(Cl)c4F)ncnc3cc2OC)CC1 [Poziotinib] (top concentration 1000 nM) | 3.48 | -0.22 | 3.88 |
| CC[C@H](C)C(=O)O[C@H]1C[C@H](O)C=C2C=C[C@H](C)[C@H](CC[C@@H](O)C[C@@H](O)CC(=O)O)[C@H]21 [Pravastatin] (top concentration 10000 nM) | -0.66 | -0.46 | -0.66 |
| COC(=O)c1ccc([C@H]2c3[nH]c4ccccc4c3C[C@H](C(=O)OC)N2C(=O)CCl)cc1 [RSL3] (top concentration 10000 nM) | 0 | 0.2 | 0 |
| Cc1cnc(NC(=O)Nc2cc(Br)c(C)cc2OC[C@@H]2CNCCO2)cn1 [Rabusertib] (top concentration 1000 nM) | -0.74 | 0.06 | 1.26 |
| CCOCc1nc2c(N)nc3ccccc3c2n1CC(C)(C)O [Resiquimod] (top concentration 10000 nM) | -4.92 | -4.92 | -4.92 |
| C[C@H]1CNCCCN1S(=O)(=O)c1cccc2cncc(F)c12 [Ripasudil] (top concentration 10000 nM) | 0.78 | -0.12 | -0.22 |
| Cc1nc(C(=O)NCC(=O)O)c(O)c2ccc(Oc3ccccc3)cc12 [Roxadustat] (top concentration 10000 nM) | -1.12 | -1.02 | -1.12 |
| CN(C)C[C@@H]1CCn2cc(c3ccccc32)C2=C(C(=O)NC2=O)c2cn(c3ccccc23)CCO1 [Ruboxistaurin] (top concentration 10000 nM) | -2.94 | -0.34 | 0.66 |
